In publication PMC9739398, “Substrate Specificity of GSDA Revealed by Cocrystal Structures and Binding Studies” (International Journal of Molecular Sciences, 2022):

Key:
AtGSDA [1] = molecular target: T1, AtGSDA (Arabidopsis thaliana, UniProt Q94BU8); assay: thermal shift (dye); deamination by mass spectrometry; type: biochemical; conditions: printed as nearly 2; turned over to 2'-O-methylxanthosine
T1 construct: gene GSDA; SF form, Ser29-Tyr185, N-terminal 6xHis tag (pET-28a), recombinant, homodimer, zinc enzyme; full-length in pET-21b also made
T1 sequence (Q94BU8 29-185): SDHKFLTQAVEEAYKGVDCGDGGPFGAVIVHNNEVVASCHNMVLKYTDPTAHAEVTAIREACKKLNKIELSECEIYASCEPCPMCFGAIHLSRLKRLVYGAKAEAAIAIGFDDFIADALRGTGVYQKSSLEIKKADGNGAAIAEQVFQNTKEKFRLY

AtGSDA [2] = molecular target: T1, AtGSDA; assay: thermal shift; deamination by mass spectrometry; type: biochemical; conditions: weak substrate; crystal soak reached product stage
AtGSDA [3] = molecular target: T1, AtGSDA; assay: crystal structure; thermal shift; type: binding; conditions: active site, described as competitive inhibitor
GDA = molecular target: T2, GDA (Escherichia coli, UniProt P76641); assay: deamination by mass spectrometry; thermal shift; type: biochemical; conditions: enzyme:substrate 1:100; 50 mM sodium bicarbonate, neutral
T2 construct: gene guaD; recombinant, purified as in a cited protocol
T2 sequence (P76641 1-439): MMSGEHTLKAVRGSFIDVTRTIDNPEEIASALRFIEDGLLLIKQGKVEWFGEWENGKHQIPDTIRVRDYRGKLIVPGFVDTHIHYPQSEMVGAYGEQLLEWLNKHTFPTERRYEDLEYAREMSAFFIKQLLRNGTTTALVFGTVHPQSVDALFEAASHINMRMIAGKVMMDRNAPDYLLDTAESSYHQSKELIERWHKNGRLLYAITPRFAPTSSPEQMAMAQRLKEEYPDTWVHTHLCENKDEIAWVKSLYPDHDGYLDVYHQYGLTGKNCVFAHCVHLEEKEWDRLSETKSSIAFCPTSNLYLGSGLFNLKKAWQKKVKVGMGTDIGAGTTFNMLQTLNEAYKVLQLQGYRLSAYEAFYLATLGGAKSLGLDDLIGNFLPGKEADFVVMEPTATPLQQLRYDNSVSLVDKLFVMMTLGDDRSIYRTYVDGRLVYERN

AtGSDA [4] = molecular target: T3, AtGSDA (Arabidopsis thaliana, UniProt Q94BU8, Y185E); assay: thermal shift; type: binding
T3 construct: gene GSDA; SF form, Ser29-Tyr185, N-terminal 6xHis tag (pET-28a), recombinant, homodimer, zinc enzyme; full-length in pET-21b also made
T3 sequence (Q94BU8 29-185 Y185E): as the sequence (Q94BU8 29-185) above, with Y157E counted along it

AtGSDA [5] = molecular target: T4, AtGSDA (Arabidopsis thaliana, UniProt Q94BU8, E82Q); assay: thermal shift; type: binding; conditions: catalytically impaired
T4 construct: gene GSDA; SF form, Ser29-Tyr185, N-terminal 6xHis tag (pET-28a), recombinant, homodimer, zinc enzyme; full-length in pET-21b also made
T4 sequence (Q94BU8 29-185 E82Q): as the sequence (Q94BU8 29-185) above, with E54Q counted along it

AtGSDA [6] = molecular target: T5, AtGSDA (Arabidopsis thaliana, UniProt Q94BU8, Y185K); assay: thermal shift; type: binding
T5 construct: gene GSDA; SF form, Ser29-Tyr185, N-terminal 6xHis tag (pET-28a), recombinant, homodimer, zinc enzyme; full-length in pET-21b also made
T5 sequence (Q94BU8 29-185 Y185K): as the sequence (Q94BU8 29-185) above, with Y157K counted along it

AtGSDA [7] = molecular target: T6, AtGSDA (Arabidopsis thaliana, UniProt Q94BU8, Y185F); assay: crystal structure; thermal shift; type: binding; conditions: one ligand per dimer, substrate form
T6 construct: gene GSDA; SF form, Ser29-Tyr185, N-terminal 6xHis tag (pET-28a), recombinant, homodimer, zinc enzyme; full-length in pET-21b also made
T6 sequence (Q94BU8 29-185 Y185F): as the sequence (Q94BU8 29-185) above, with Y157F counted along it

AtGSDA [8] = molecular target: T6, AtGSDA; assay: thermal shift; type: binding
AtGSDA [9] = molecular target: T1, AtGSDA; assay: thermal shift (dye); crystal structure (product formed from soaked guanosine); type: binding; conditions: printed as nearly 2; zinc enzyme; active site

Structure (SMILES): CO[C@@H]1[C@H](O)[C@@H](CO)O[C@H]1n1cnc2c(=O)[nH]c(N)nc21 [compound 1, 2′-O-methylguanosine]
- ΔTm (AtGSDA [1]): ~ 2 °C

Structure (SMILES): CNc1nc2c(ncn2[C@@H]2O[C@H](CO)[C@@H](O)[C@H]2O)c(=O)[nH]1 [compound 2, N^2-methylguanosine]
- ΔTm (AtGSDA [2]): the inhibitors Ado/isoG or the weak substrate N^2-mG normally lacked one or two functional groups

Structure (SMILES): Nc1ncnc2c1ncn2[C@@H]1O[C@H](CO)[C@@H](O)[C@H]1O [compound 3, adenosine]
- ΔTm (AtGSDA [3]): The ligand adenosine (Ado) maintained its interactions with Ala81 and Asn69 via N6

Structure (SMILES): O=c1[nH]cnc2c1ncn2[C@@H]1O[C@H](CO)[C@@H](O)[C@H]1O [compound 4, inosine]
- ΔTm (AtGSDA [3]): The binding position was almost unchanged when compared to Gua bound by AtGSDA

Structure (SMILES): Nc1nc(=O)[nH]c2c1ncn2[C@@H]1O[C@H](CO)[C@@H](O)[C@H]1O [compound 5, isoguanosine]
- ΔTm (AtGSDA [3]; 2-keto group ligates zinc): its binding mode was similar to that of Xan (Figure 3c, PDB 7DM6)

Structure (SMILES): Nc1nc2[nH]cnc2c(=O)[nH]1 [guanine]
- ΔTm (GDA): GDA showed excellent deamination capability by converting almost all of the guanine substrate

Structure (SMILES): Nc1nc2c(ncn2[C@@H]2O[C@H](CO)[C@@H](O)[C@H]2O)c(=O)[nH]1 [guanosine]
- ΔTm (AtGSDA [4]): WT and Y185F/E showed similar binding affinities toward the ligands
- ΔTm (AtGSDA [5]): the Y185K and E82Q mutants showed differentially reduced affinities
- ΔTm (AtGSDA [6]): the Y185K and E82Q mutants showed differentially reduced affinities
- ΔTm (AtGSDA [7]): the Y185F-Gua structure indicated that only one Gua molecule was bound

Structure (SMILES): O=c1[nH]c(=O)c2ncn([C@@H]3O[C@H](CO)[C@@H](O)[C@H]3O)c2[nH]1 [xanthosine]
- ΔTm (AtGSDA [4]): WT and Y185F/E showed similar binding affinities toward the ligands
- ΔTm (AtGSDA [8]): WT and Y185F/E showed similar binding affinities toward the ligands
- ΔTm (AtGSDA [9]): ~ 2 °C
